# Experiments:
# [1] = system: C57BL/6J mice; assay: Elevated plus-maze test, icv injection, oCRF-induced behavior; type: in vivo, mouse
# Method: The antagonists and agonists were injected icv 30 and 15 min, respectively, before exposure to the elevated plus-maze for 5 min.
# Ten min later the animals received 90 ng oCRF, and after 30 min, their behavior was recorded in the elevated plus maze test.
# Alternatively, the elevated plus-maze behavior of C57BL/6J mice cannulated in the lateral ventricles (Radulovic, J., Rühmann, A., Liepold, T & Spiess, J. (1999) J.Neurosci. 19, 5016-5025) was investigated 15 min after injection of ovine CRF (oCRF) in the elevated plus-maze test (Radulovic, J., Kammermeier, J. & Spiess, J. (1998) Behav.Brain Res. 95, 179-189.).Peptide concentrations were determined by amino acid analysis (Radulovic, J., Rühmann, A., Liepold, T. & Spiess, J. (1999) J.Neurosci. 19, 5016-5025). CRF antagonists in aCSF as vehicle or vehicle alone were injected 30 min prior to oCRF administration. The behavior of the mice was recorded by a video camera connected to a PC and analyzed by the software VideoMot 2 (Technical &Scientific Equipment). The time spent, distance crossed, and number of entries in the open arms, closed arms, and center were recorded. The cannular placement was confirmed for each mouse by histological examination of the brains after methylene blue injection (Radulovic, J., Rühmann, A., Liepold, T. & Spiess, J. (1999) J.Neurosci. 19, 5016-5025). The behavioral data were analyzed by t tests or ANOVA followed by post hoc Scheffe's test for multiple comparisons. Data are presented as mean±SEM. The shift of preference from the open to the closed arms is interpreted as an increase of anxiety-like behavior. Locomotor activity is determined with this assay by the distance traveled.
# [2] = target: T1, mCRFR2β (Mus musculus, UniProt Q60748); assay: Intracellular cAMP accumulation in mCRFR2β-HEK 293 cells; type: cell-based; details: for Rel. intrinsic activity mCRFR2β: cAMP after 1 μM antagonist relative to Svg stimulation, 95% CI in parentheses; for Rel. potency of antagonist mCRFR2β: inhibition of cAMP accumulation after 1 nM Svg
# T1 construct: expressed in transfected cells
# Method: (§1) The SPA assay for rCRFR1 and rCRFR2β was performed in 96-well microtiter plates. […] After 1 hour shaking 250 mg wheat germ agglutinin beads per well were added and the plates were counted in a microbeta scintillation counter (Wallac). cAMP accumulation was measured using the SPA based Biotrack assay (Amersham).
# [3] = target: T2, rCRFR1 (Rattus norvegicus, UniProt P35353)
# T2 sequence (P35353 24-415): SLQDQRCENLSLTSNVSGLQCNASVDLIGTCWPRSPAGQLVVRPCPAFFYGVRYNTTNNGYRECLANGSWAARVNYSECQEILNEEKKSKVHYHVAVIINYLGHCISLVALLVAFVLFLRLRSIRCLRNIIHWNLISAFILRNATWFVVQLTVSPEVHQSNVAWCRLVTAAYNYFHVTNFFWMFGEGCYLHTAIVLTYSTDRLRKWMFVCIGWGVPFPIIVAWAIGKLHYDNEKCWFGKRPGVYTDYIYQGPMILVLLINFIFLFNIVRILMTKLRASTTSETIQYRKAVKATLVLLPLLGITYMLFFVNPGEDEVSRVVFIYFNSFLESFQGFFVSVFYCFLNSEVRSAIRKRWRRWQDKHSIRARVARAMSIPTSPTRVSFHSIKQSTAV
# [4] = Isoelectric focusing (IEF); type: physicochemical; details: determined by isoelectric focussing
# Method: Isoelectric focusing (IEF) was carried out with a BioRad IEF cell system using Biorad IEF strips (11 cm, pH range from 3 to 10). The system was cooled to 20° C. Calibration was performed with 80 μg of Sigma IEF mix 3.6-9.3 dissolved in 200 μl water containing 0.2% Bio-Lyte® 3/10 and 0.1% NP40. Twenty five μg of each peptide was dissolved in 200 μl water containing 0.2% Bio-Lyte® 3/10,0.1% NP40, and 10 mM DTT.IEF gels were placed in the chamber containing the peptide solution. The IEF gels were initially rehydrated for 12 hours at 50 V. Focusing of the peptides was achieved by application of a linear voltage gradient starting at 250 V and reaching 8000 V in 2.5 hours. The gels were then exposed to 8000 V for 4.5 hours. Subsequently, the IEF gels were stained in the BioRad IEF gel staining solution and destained in a mixture of 10% acetic acid, 40% methanol, and 50% water.
# [5] = target: T2, rCRFR1; assay: Competitive binding to rCRFR1, SPA on HEK-293 membrane fractions with [125I-Tyr0]h/rCRF; details: binding affinities CRFR1 vs CRFR2
# Method: as §1
# Binding of CRF-like peptides to rCRFBP was carried out with an SPA assay in nickel-chelate-coated 96-well microtiter plates (Flash Plate PLUS™, NEN), which bound rCRFBP tagged with a C-terminal His6 sequence (rCRFBP-His6). The scintillator beads carrying the Ni 2+ ions for binding of the His tag were located at the inner surface of the wells of this microtiterplate. […] The plates were sealed and incubated for four hours at room temperature. The radioactivities in the microtiterplates were counted in a Wallac 1450 Microbeta scintillation counter by detection of the light emitted from the scintillator beads. In both SPA systems the detection of the radioligand.8 depended on its proximity to the beads containing the scintillator. […] The major portion of counted radioactivity (>70%) represented specific binding that was because of radiolabeled ligand specifically bound to CRFBP or CRFR. […] Binding data were analyzed using the Prism computer program (GraphPad Software, San Diego).
# T1 sequence (Q60748 1-431 isoform Q60748-2): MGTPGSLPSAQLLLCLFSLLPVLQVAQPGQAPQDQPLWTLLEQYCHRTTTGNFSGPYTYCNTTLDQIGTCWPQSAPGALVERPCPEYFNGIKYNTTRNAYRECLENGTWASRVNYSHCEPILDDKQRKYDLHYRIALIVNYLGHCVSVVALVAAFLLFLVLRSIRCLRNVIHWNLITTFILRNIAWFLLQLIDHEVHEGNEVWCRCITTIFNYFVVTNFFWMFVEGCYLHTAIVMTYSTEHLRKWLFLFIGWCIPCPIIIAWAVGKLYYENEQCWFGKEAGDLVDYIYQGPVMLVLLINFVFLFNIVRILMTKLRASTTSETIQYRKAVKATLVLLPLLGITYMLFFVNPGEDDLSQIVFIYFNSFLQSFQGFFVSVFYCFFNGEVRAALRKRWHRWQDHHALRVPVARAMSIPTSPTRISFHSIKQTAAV
molecule,measurement,setting,value
α-helical CRF^9-41 [α-hel-CRF^9-41],change of oCRF-induced behavioral effects in plus-maze test,[1]; 120 pmol antagonist icv before 35 pmol oCRF,no significant change
same,Rel. intrinsic activity mCRFR2β,[2],1.4 (1.2-1.5) %
same,Rel. potency of antagonist mCRFR2β,[2],97 (96-97) %
same,Emax,[3],19%
"CC[C@H](C)[C@H](NC(=O)[C@@H](NC(=O)[C@H](CC(=O)O)NC(=O)[C@H](CC(C)C)NC(=O)[C@H](CC(C)C)NC(=O)[C@H](CC(C)C)NC(=O)[C@H](CCCNC(=N)N)NC(=O)[C@H](CC(N)=O)NC(=O)[C@H](CC(N)=O)NC(=O)[C@H](C)NC(=O)[C@H](C)NC(=O)[C@H](CCC(N)=O)NC(=O)[C@H](CCC(N)=O)NC(=O)[C@H](CCCCN)NC(=O)[C@H](CCC(=O)O)NC(=O)[C@H](CCCCN)NC(=O)[C@H](CCC(=O)O)NC(=O)[C@H](CCC(N)=O)NC(=O)[C@H](CCCCN)NC(=O)[C@H](CCC(=O)O)NC(=O)[C@@H](NC(=O)[C@H](CCC(=O)O)NC(=O)[C@@H](NC(=O)[C@H](CCSC)NC(=O)[C@H](CCCCN)NC(=O)[C@H](CCCNC(=N)N)NC(=O)[C@H](CC(C)C)NC(=O)[C@H](CC(C)C)NC(=O)[C@H](CCC(=O)O)NC(=O)[C@H](CC(C)C)NC(=O)[C@H](CO)NC(=O)[C@H](CC(C)C)NC(=O)[C@H](CC(=O)O)NC(=O)[C@@H](NC(=O)[C@H](CO)NC(=O)[C@@H](NC(=O)[C@@H]1CCCN1C(=O)[C@@H]1CCCN1C(=O)CNC(=O)[C@@H]1CCC(=O)N1)[C@@H](C)CC)[C@@H](C)CC)[C@@H](C)CC)[C@@H](C)CC)[C@@H](C)O)C(N)=O [Svg, sauvagine]",Isoelectric point,[4],5.1
anti-sauvagine-30 [aSvg-30],Rel. intrinsic activity mCRFR2β,[2],1.0 (0.9-1.1) %
same,Rel. potency of antagonist mCRFR2β,[2],99 (98-99) %
same,Emax,[3],6.5%
h/rCRF,"selectivity favoring CRFR1 (over CRFR2), factor",[5],30
oCRF,effect on oCRF-elicited anxious behavior in elevated plus maze (Example 9),"[1]; 220 ng [E11]Ast icv, 10 min later 90 ng oCRF, threefold molar excess",elicited anxious behavior
same,"anxiety-like behavior (open arm visits, % time in open arms)",[1]; icv 20 pmol (90 ng) oCRF,enhanced
same,locomotion (total distance crossed) in elevated plus-maze,[1]; icv 20 pmol (90 ng) oCRF,markedly decreased
same,behavior effects at higher agonist dose,[1]; icv 35 pmol (170 ng) oCRF,significantly enhanced

# Source: patent US20040049009A1, “Methods for improving the antagonistic/agonistic properties of peptidic antagonists/agonists of the corticotropin-releasing factor receptor (crfr)” (priority 2000, published 2004)
